Experimental data as given in ChEMBL document CHEMBL3864150, “Synthesis and cytotoxicity study of novel 3-(triazolyl)coumarins based fluorescent scaffolds” (Bioorg Med Chem Lett, 2016).

Experiments:
HeLa = experiment: Selectivity factor, ratio of IC50 for human MRC5 cells to IC50 for human HeLa cells
[1] = Cytotoxicity against human HeLa cells after 24 hrs by MTT assay; assay type: functional, cell-based
[2] = Cytotoxicity against human MRC5 cells after 24 hrs by MTT assay
MCF7 = experiment: Selectivity factor, ratio of IC50 for human MRC5 cells to IC50 for human MCF7 cells
[3] = Cytotoxicity against human MCF7 cells after 24 hrs by MTT assay; assay type: functional, cell-based; details: MCF7, 24 h
[4] = Drug uptake in human MCF7 cells at 20 uM after 2 hrs by fluorescence microscopy; assay type: ADME, cell-based; details: mcf7, 2 h

SMILES | Ratio IC50 (HeLa) | IC50 [1] [µM] | IC50 at 24 h [2] [µM] | Ratio IC50 (MCF7) | IC50 [3] [µM] | Drug uptake [4]
COc1cccc2cc(-n3nnc4c3-c3ccccc3N(C(=O)CCN)Cc3ccccc3-4)c(=O)oc12 | 3.54 | 26.2 | 92.8 | 4.24 | 21.9 | 
[N-]=[N+]=Nc1cc2cc(Br)ccc2oc1=O | 2.48 | 28.3 | 70.4 | 2.97 | 23.7 | 
COc1cccc2cc(N=[N+]=[N-])c(=O)oc12 | 1.61 | 36.4 | 58.7 | 1.85 | 31.5 | 
[N-]=[N+]=Nc1cc2ccc(O)cc2oc1=O | 1.5 | 41.6 | 62.7 | 1.63 | 38.4 | 
[N-]=[N+]=Nc1cc2ccccc2oc1=O | 2.37 | 29.6 | 70.2 | 2.63 | 26.7 | 
NCCC(=O)N1Cc2ccccc2-c2nnn(-c3cc4cc(Br)ccc4oc3=O)c2-c2ccccc21 | 5.49 | 18.2 | 100 | 9.4 | 10.7 | 
NCCC(=O)N1Cc2ccccc2-c2nnn(-c3cc4ccc(OCCBr)cc4oc3=O)c2-c2ccccc21 | 6.19 | 19.5 | 121 | 6.52 | 18.5 | 
NCCC(=O)N1Cc2ccccc2-c2nnn(-c3cc4cc(Cl)cc(Cl)c4oc3=O)c2-c2ccccc21 | 10.58 | 17.5 | 185 | 18.84 | 9.83 | Active
NCCC(=O)N1Cc2ccccc2-c2nnn(-c3cc4ccc(O)cc4oc3=O)c2-c2ccccc21 | 4.27 | 21.1 | 90.2 | 4.9 | 18.4 | Active
[N-]=[N+]=Nc1cc2cc(Cl)cc(Cl)c2oc1=O | 2.43 | 27.6 | 67.2 | 3.6 | 18.6 | 
NCCC(=O)N1Cc2ccccc2-c2nnn(-c3cc4ccccc4oc3=O)c2-c2ccccc21 | 5.55 | 19.8 | 110 | 8.68 | 12.7 | 
COc1cccc2c1C(=O)c1c(O)c3c(c(O)c1C2=O)C[C@@](O)(C(=O)CO)C[C@@H]3O[C@H]1C[C@H](N)[C@H](O)[C@H](C)O1 [DOXORUBICIN] |  | 5.2 | 70.6 |  |  | 
